Assay results: the NIST ThermoML archive (doi:10.1021/je300853z)

Key:
[1] = molar heat capacity at constant pressure; xn = mol fraction of the nth substance listed; conditions: 101 kPa, Liquid, Small sample (50 mg) DSC
[2] = excess molar enthalpy (molar enthalpy of mixing); xn = mol fraction of the nth substance listed; conditions: 101 kPa, Liquid, Calvet calorimetry

CCCCCCCC[n+]1ccc2ccccc2c1.N#C[S-] [2-octylisoquinolinium thiocyanate] + O
Conditions | excess molar enthalpy [kcal/mol] | molar heat capacity at constant pressure [J/K/mol]
[1], 278.15 K, x1 = 0.3977 | – | 248
[1], 278.15 K, x1 = 0.5237 | – | 295
[1], 278.15 K, x1 = 0.5945 | – | 334
[1], 278.15 K, x1 = 0.7214 | – | 386
[1], 278.15 K, x1 = 0.8097 | – | 423
[1], 278.15 K, x1 = 0.8935 | – | 467
[1], 283.15 K, x1 = 0.3977 | – | 250
[1], 283.15 K, x1 = 0.5237 | – | 304
[1], 283.15 K, x1 = 0.5945 | – | 337
[1], 283.15 K, x1 = 0.7214 | – | 388
[1], 283.15 K, x1 = 0.8097 | – | 426
[1], 283.15 K, x1 = 0.8935 | – | 470
[1], 288.15 K, x1 = 0.3977 | – | 251
[1], 288.15 K, x1 = 0.5237 | – | 306
[1], 288.15 K, x1 = 0.5945 | – | 340
[1], 288.15 K, x1 = 0.7214 | – | 391
[1], 288.15 K, x1 = 0.8097 | – | 429
[1], 288.15 K, x1 = 0.8935 | – | 474
[1], 293.15 K, x1 = 0.3977 | – | 253
[1], 293.15 K, x1 = 0.5237 | – | 309
[1], 293.15 K, x1 = 0.5945 | – | 342
[1], 293.15 K, x1 = 0.7214 | – | 393
[1], 293.15 K, x1 = 0.8097 | – | 432
[1], 293.15 K, x1 = 0.8935 | – | 476
[1], 298.15 K, x1 = 0.3977 | – | 255
[1], 298.15 K, x1 = 0.5237 | – | 311
[1], 298.15 K, x1 = 0.5945 | – | 344
[1], 298.15 K, x1 = 0.7214 | – | 396
[1], 298.15 K, x1 = 0.8097 | – | 434
[1], 298.15 K, x1 = 0.8935 | – | 479
[1], 303.15 K, x1 = 0.3977 | – | 257
[1], 303.15 K, x1 = 0.5237 | – | 313
[1], 303.15 K, x1 = 0.5945 | – | 347
[1], 303.15 K, x1 = 0.7214 | – | 398
[1], 303.15 K, x1 = 0.8097 | – | 437
[1], 303.15 K, x1 = 0.8935 | – | 482
[1], 308.15 K, x1 = 0.3977 | – | 258
[1], 308.15 K, x1 = 0.5237 | – | 315
[1], 308.15 K, x1 = 0.5945 | – | 349
[1], 308.15 K, x1 = 0.7214 | – | 400
[1], 308.15 K, x1 = 0.8097 | – | 439
[1], 308.15 K, x1 = 0.8935 | – | 484
[1], 313.15 K, x1 = 0.3977 | – | 260
[1], 313.15 K, x1 = 0.5237 | – | 316
[1], 313.15 K, x1 = 0.5945 | – | 351
[1], 313.15 K, x1 = 0.7214 | – | 402
[1], 313.15 K, x1 = 0.8097 | – | 441
[1], 313.15 K, x1 = 0.8935 | – | 487
[1], 318.15 K, x1 = 0.3977 | – | 261
[1], 318.15 K, x1 = 0.5237 | – | 318
[1], 318.15 K, x1 = 0.5945 | – | 353
[1], 318.15 K, x1 = 0.7214 | – | 404
[1], 318.15 K, x1 = 0.8097 | – | 441
[1], 318.15 K, x1 = 0.8935 | – | 490
[1], 323.15 K, x1 = 0.3977 | – | 261
[1], 323.15 K, x1 = 0.5237 | – | 319
[1], 323.15 K, x1 = 0.5945 | – | 355
[1], 323.15 K, x1 = 0.7214 | – | 405
[1], 323.15 K, x1 = 0.8097 | – | 442
[1], 323.15 K, x1 = 0.8935 | – | 492
[1], 328.15 K, x1 = 0.3977 | – | 262
[1], 328.15 K, x1 = 0.5237 | – | 320
[1], 328.15 K, x1 = 0.5945 | – | 357
[1], 328.15 K, x1 = 0.7214 | – | 406
[1], 328.15 K, x1 = 0.8097 | – | 443
[1], 328.15 K, x1 = 0.8935 | – | 495
[1], 333.15 K, x1 = 0.3977 | – | 263
[1], 333.15 K, x1 = 0.5237 | – | 321
[1], 333.15 K, x1 = 0.5945 | – | 358
[1], 333.15 K, x1 = 0.7214 | – | 408
[1], 333.15 K, x1 = 0.8097 | – | 443
[1], 333.15 K, x1 = 0.8935 | – | 497
[1], 338.15 K, x1 = 0.3977 | – | 263
[1], 338.15 K, x1 = 0.5237 | – | 322
[1], 338.15 K, x1 = 0.5945 | – | 360
[1], 338.15 K, x1 = 0.7214 | – | 408
[1], 338.15 K, x1 = 0.8097 | – | 442
[1], 338.15 K, x1 = 0.8935 | – | 500
[2], 298.15 K, x1 = 0.2433 | 0.0308 | –
[2], 298.15 K, x1 = 0.258 | 0.0292 | –
[2], 298.15 K, x1 = 0.2745 | 0.0249 | –
[2], 298.15 K, x1 = 0.2933 | 0.0158 | –
[2], 298.15 K, x1 = 0.3149 | 0.00142 | –
[2], 298.15 K, x1 = 0.3361 | -0.0125 | –
[2], 298.15 K, x1 = 0.3603 | -0.0289 | –
[2], 298.15 K, x1 = 0.3833 | -0.0433 | –
[2], 298.15 K, x1 = 0.4094 | -0.0581 | –
[2], 298.15 K, x1 = 0.4329 | -0.0703 | –
[2], 298.15 K, x1 = 0.4593 | -0.08198 | –
[2], 298.15 K, x1 = 0.4892 | -0.09345 | –
[2], 298.15 K, x1 = 0.5141 | -0.1009 | –
[2], 298.15 K, x1 = 0.5417 | -0.1071 | –
[2], 298.15 K, x1 = 0.5724 | -0.1116 | –
[2], 298.15 K, x1 = 0.6068 | -0.1138 | –
[2], 298.15 K, x1 = 0.6457 | -0.113 | –
[2], 298.15 K, x1 = 0.6742 | -0.1107 | –
[2], 298.15 K, x1 = 0.7053 | -0.1052 | –
[2], 298.15 K, x1 = 0.7395 | -0.09728 | –
[2], 298.15 K, x1 = 0.7771 | -0.08676 | –
[2], 298.15 K, x1 = 0.7969 | -0.0805 | –
[2], 298.15 K, x1 = 0.8176 | -0.0727 | –
[2], 298.15 K, x1 = 0.8395 | -0.0641 | –
[2], 298.15 K, x1 = 0.8626 | -0.0543 | –
[2], 298.15 K, x1 = 0.887 | -0.0445 | –
[2], 298.15 K, x1 = 0.9128 | -0.0332 | –
[2], 298.15 K, x1 = 0.9401 | -0.0211 | –
[2], 298.15 K, x1 = 0.9691 | -0.00755 | –
[2], 303.15 K, x1 = 0.2439 | 0.0421 | –
[2], 303.15 K, x1 = 0.2588 | 0.0373 | –
[2], 303.15 K, x1 = 0.2756 | 0.0294 | –
[2], 303.15 K, x1 = 0.2947 | 0.0165 | –
[2], 303.15 K, x1 = 0.3133 | 0.00311 | –
[2], 303.15 K, x1 = 0.3344 | -0.0118 | –
[2], 303.15 K, x1 = 0.3586 | -0.0282 | –
[2], 303.15 K, x1 = 0.3815 | -0.043 | –
[2], 303.15 K, x1 = 0.4076 | -0.0583 | –
[2], 303.15 K, x1 = 0.4311 | -0.0707 | –
[2], 303.15 K, x1 = 0.4575 | -0.0829 | –
[2], 303.15 K, x1 = 0.4873 | -0.09441 | –
[2], 303.15 K, x1 = 0.5122 | -0.1021 | –
[2], 303.15 K, x1 = 0.5398 | -0.1087 | –
[2], 303.15 K, x1 = 0.5706 | -0.1138 | –
[2], 303.15 K, x1 = 0.605 | -0.1166 | –
[2], 303.15 K, x1 = 0.644 | -0.1169 | –
[2], 303.15 K, x1 = 0.6725 | -0.1147 | –
[2], 303.15 K, x1 = 0.7038 | -0.1107 | –
[2], 303.15 K, x1 = 0.7381 | -0.104 | –
[2], 303.15 K, x1 = 0.7758 | -0.09393 | –
[2], 303.15 K, x1 = 0.7957 | -0.08795 | –
[2], 303.15 K, x1 = 0.8165 | -0.081 | –
[2], 303.15 K, x1 = 0.8385 | -0.0729 | –
[2], 303.15 K, x1 = 0.8617 | -0.0643 | –
[2], 303.15 K, x1 = 0.8862 | -0.055 | –
[2], 303.15 K, x1 = 0.9122 | -0.0435 | –
[2], 303.15 K, x1 = 0.9397 | -0.0304 | –
[2], 303.15 K, x1 = 0.9689 | -0.0157 | –
[2], 308.15 K, x1 = 0.214 | 0.0641 | –
[2], 308.15 K, x1 = 0.2281 | 0.0612 | –
[2], 308.15 K, x1 = 0.2422 | 0.0562 | –
[2], 308.15 K, x1 = 0.2581 | 0.0454 | –
[2], 308.15 K, x1 = 0.2762 | 0.0311 | –
[2], 308.15 K, x1 = 0.297 | 0.0144 | –
[2], 308.15 K, x1 = 0.3176 | -0.00142 | –
[2], 308.15 K, x1 = 0.3411 | -0.0193 | –
[2], 308.15 K, x1 = 0.3636 | -0.0349 | –
[2], 308.15 K, x1 = 0.3892 | -0.0516 | –
[2], 308.15 K, x1 = 0.4124 | -0.065 | –
[2], 308.15 K, x1 = 0.4385 | -0.0782 | –
[2], 308.15 K, x1 = 0.4682 | -0.0913 | –
[2], 308.15 K, x1 = 0.493 | -0.1001 | –
[2], 308.15 K, x1 = 0.5207 | -0.1083 | –
[2], 308.15 K, x1 = 0.5517 | -0.1147 | –
[2], 308.15 K, x1 = 0.5866 | -0.1193 | –
[2], 308.15 K, x1 = 0.6262 | -0.1207 | –
[2], 308.15 K, x1 = 0.6554 | -0.1195 | –
[2], 308.15 K, x1 = 0.6876 | -0.1164 | –
[2], 308.15 K, x1 = 0.723 | -0.1104 | –
[2], 308.15 K, x1 = 0.7622 | -0.1016 | –
[2], 308.15 K, x1 = 0.7829 | -0.09632 | –
[2], 308.15 K, x1 = 0.8048 | -0.08987 | –
[2], 308.15 K, x1 = 0.8278 | -0.0825 | –
[2], 308.15 K, x1 = 0.8523 | -0.0736 | –
[2], 308.15 K, x1 = 0.8782 | -0.0631 | –
[2], 308.15 K, x1 = 0.9058 | -0.0516 | –
[2], 308.15 K, x1 = 0.9352 | -0.039 | –
[2], 308.15 K, x1 = 0.9665 | -0.0244 | –
